Earlier results as cited in paper PMC7150867, “Molecular Imaging of Galectin-1 Expression as a Biomarker of Papillary Thyroid Cancer by Using Peptide-Functionalized Imaging Probes” (Biology, 2020).

From the text: To validate the effectiveness of gal-1-targeted peptides, another type of probe and therefore imaging of thyroid cancer was explored. Owing to its high sensitivity, in the order of nanomolar, resolution in the range of 50–130 µm, and nonionizing radiation, FLI appears as a promising imaging technique in the field of biomedical research and clinical diagnosis of a wide range of pathologies. In oncology, FLI enables early diagnosis and the depiction of the extent of cancer invasion, improving the accuracy of tumor resection.

Sequence: YSWHIDIVAPRN [Peptide P7, gal-1-targeted 12-mer linear peptide identified by phage display]
- LogP: 1.02
- LogD7.4 (pH 7.4): −7.63
